Results: patent publication US9855270B2, “Methods and compositions for modulating estrogen receptor mutants” (priority 2014, dated 2018)
Read-outs that look alike come from different tables or passages of the source.

What was measured:
[1] = tested on: MCF-7 cells stably expressing EF1 HA-ER-α Y537N; assay: cells; type: cell-based; conditions: EF1 HA-ER-α Y537N; for Efficacy (Emax): Day 5 relative to Day 0; for Percent inhibition compared to vehicle: 5-Day Incubation; for EC50: Homo sapiens, MCF7, read-out: Potency (EC50; nM)
Method in brief: (§1)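 CellTiter-Glo read-out: background-subtracted RLU divided by day-0 RLU gives fold proliferation. Cells were MCF-7 transduced with HA-ER-α lentivirus (EF1 high or UbC low-moderate promoter) or empty vector, dosed 10 μM–5 pM for 5 days in phenol-free RPMI/10% CSS.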

[2] = tested on: MCF-7 cells stably expressing UbC HA-ER-α Y537N; assay: cells; type: cell-based; conditions: UbC HA-ER-α Y537N; for EC50: Homo sapiens, MCF7, read-out: Potency (EC50; nM); for Percent inhibition compared to vehicle: 5-Day Incubation; for Efficacy (Emax): Day 5 relative to Day 0
Method in brief: (§2)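 Stable HA-ER-α MCF-7 lines are treated with compound for 5 days in phenol-free, charcoal-stripped medium. Viability is measured by CellTiter-Glo and expressed relative to the time-zero plate.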

[3] = tested on: MCF-7 cells stably expressing EF1 HA-ER-α E380Q; assay: cells; type: cell-based; conditions: EF1 HA-ER-α E380Q; for Percent inhibition compared to vehicle: 5-Day Incubation; for Efficacy (Emax): Day 5 relative to Day 0; for EC50: Homo sapiens, MCF7, read-out: Potency (EC50; nM)
Method in brief: as §2

[4] = tested on: MCF-7 cells stably expressing UbC HA-ER-α L536P; assay: cells; type: cell-based; conditions: for EC50: Homo sapiens, MCF7, read-out: Potency (EC50; nM)
Method in brief: as §2

[5] = tested on: MCF-7 cells stably expressing UbC HA-ER-α E380Q; assay: cells; type: cell-based; conditions: UbC HA-ER-α E380Q; for EC50: Homo sapiens, MCF7, read-out: Potency (EC50; nM); for Percent inhibition compared to vehicle: 5-Day Incubation; for Efficacy (Emax): Day 5 relative to Day 0
Method in brief: as §1

[6] = molecular target: T1, wild-type ER-α (Homo sapiens, UniProt P03372)
T1 sequence (P03372 1-595): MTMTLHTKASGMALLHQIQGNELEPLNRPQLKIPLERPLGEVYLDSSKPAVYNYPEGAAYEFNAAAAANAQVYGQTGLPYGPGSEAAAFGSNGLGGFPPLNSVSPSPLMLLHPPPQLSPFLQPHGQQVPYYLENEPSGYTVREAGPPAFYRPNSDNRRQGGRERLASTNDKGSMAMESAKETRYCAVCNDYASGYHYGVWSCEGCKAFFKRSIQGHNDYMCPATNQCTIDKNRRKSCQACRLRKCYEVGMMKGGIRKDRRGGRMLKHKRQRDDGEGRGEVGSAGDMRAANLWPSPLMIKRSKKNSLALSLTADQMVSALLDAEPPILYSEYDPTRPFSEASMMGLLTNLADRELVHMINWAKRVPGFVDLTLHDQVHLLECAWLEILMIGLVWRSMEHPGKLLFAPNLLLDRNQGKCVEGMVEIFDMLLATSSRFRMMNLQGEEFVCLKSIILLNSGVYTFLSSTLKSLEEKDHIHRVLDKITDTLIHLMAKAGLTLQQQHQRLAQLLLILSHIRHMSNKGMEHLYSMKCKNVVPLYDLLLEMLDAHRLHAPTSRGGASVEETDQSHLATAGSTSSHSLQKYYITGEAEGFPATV

[7] = Antagonist Mode, −E2 (Table 27)
[8] = Agonist Mode, −E2, 5-Day Incubation
[9] = Agonist Mode, −E2, Day 5 relative to Day 0
[10] = Antagonist Mode, +E2, 5-Day Incubation
[11] = Antagonist Mode, +E2, Day 5 relative to Day 0
[12] = Agonist Mode, −E2, relative to vehicle treated wild-type ER-α
[13] = Antagonist Mode, +E2, relative to vehicle treated wild-type ER-α

With `C[C@]12CC[C@@H]3c4ccc(O)cc4C[C@@H](CCCCCCCCC[S+]([O-])CCCC(F)(F)C(F)(F)F)[C@H]3[C@@H]1CC[C@@H]2O` (stereo partly shown) [Fulvestrant] the “Efficacy (Emax)” value ([1]; Agonist Mode, −E2) was 0.52 ± 0.09, the “Percent inhibition compared to vehicle” value ([1]; Antagonist Mode, +E2) was 90% and the “Efficacy (Emax)” value ([1]; Antagonist Mode, +E2) was 0.56 ± 0.02. The EC50 ([1]; Agonist Mode, −E2) was 9.26 ± 2.39 nM, the EC50 ([1]; Antagonist Mode, +E2) was 12.4 ± 3.52 nM and the EC50 [1, 7] was 9.26 ± 2.39 nM. For the same molecule, the EC50 ([2]; Agonist Mode, −E2) was 0.355 ± 0.163 nM, the EC50 ([2]; Antagonist Mode, +E2) was 1.77 ± 0.387 nM and the “Percent inhibition compared to vehicle” value ([2]; Agonist Mode, −E2) was 63%. The “Efficacy (Emax)” value ([2]; Agonist Mode, −E2) was 1.61 ± 0.15, the “Percent inhibition compared to vehicle” value ([2]; Antagonist Mode, +E2) was 77% and the “Efficacy (Emax)” value ([2]; Antagonist Mode, +E2) was 1.49 ± 0.00. The “Percent inhibition compared to vehicle” value ([3]; Agonist Mode, −E2) was 62%, the “Efficacy (Emax)” value ([3]; Agonist Mode, −E2) was 2.50 ± 0.03 and the “Percent inhibition compared to vehicle” value ([3]; Antagonist Mode, +E2) was 65%. For the same molecule, the “Efficacy (Emax)” value ([3]; Antagonist Mode, +E2) was 2.21 ± 0.12, the EC50 ([3]; Agonist Mode, −E2) was 4.36 ± 3.23 nM and the EC50 ([3]; Antagonist Mode, +E2) was 10.3 ± 2.62 nM. For the same molecule, the EC50 [3, 7] was 4.36 ± 3.23 nM, the “Percent inhibition compared to vehicle” value [4, 8] was 47% and the “Efficacy (Emax)” value [4, 9] was 1.66 ± 0.11. The “Percent inhibition compared to vehicle” value [4, 10] was 71%, the “Efficacy (Emax)” value [4, 11] was 1.73 ± 0.08 and the EC50 ([4]; Agonist Mode, −E2) was 0.298 ± 0.132 nM. The EC50 ([4]; Antagonist Mode, +E2) was 2.59 ± 2.58 nM, the EC50 ([5]; Agonist Mode, −E2) was 0.248 ± 0.094 nM and the EC50 ([5]; Antagonist Mode, +E2) was 1.14 ± 0.028 nM. The “Percent inhibition compared to vehicle” value ([5]; Agonist Mode, −E2) was 60%, the “Efficacy (Emax)” value ([5]; Agonist Mode, −E2) was 1.70 ± 0.30 and the “Percent inhibition compared to vehicle” value ([5]; Antagonist Mode, +E2) was 76%. For the same molecule, the “Efficacy (Emax)” value ([5]; Antagonist Mode, +E2) was 1.70 ± 0.32, the “Efficacy (Emax)” value [6, 12] was 0.15 ± 0.09 and the “Efficacy (Emax)” value [6, 13] was 0.06 ± 0.08.
In the case of `CC1=C(c2cccc(O)c2)[C@H](c2ccc(OCCN3CC(CF)C3)cc2)Oc2ccc(O)cc21` [Compound 4-23, (S)-2-(4-(2-(3-(fluoromethyl)azetidin-1-yl)ethoxy)phenyl)-3-(3-hydroxyphenyl)-4-methyl-2H-chromen-6-ol], the “Percent inhibition compared to vehicle” value ([1]; Agonist Mode, −E2) is reported as 88%, the “Efficacy (Emax)” value ([1]; Agonist Mode, −E2) is reported as 0.74 ± 0.01 and the “Percent inhibition compared to vehicle” value ([1]; Antagonist Mode, +E2) is reported as 87%. For the same molecule, the “Efficacy (Emax)” value ([1]; Antagonist Mode, +E2) was 0.70 ± 0.01, the EC50 ([1]; Antagonist Mode, +E2) was 45.5 ± 51.7 nM and the EC50 [1, 7] was 16 ± 17.6 nM. For the same molecule, the EC50 ([2]; Agonist Mode, −E2) was 0.446 ± 0.219 nM, the EC50 ([2]; Antagonist Mode, +E2) was 2.64 ± 1.86 nM and the “Percent inhibition compared to vehicle” value ([2]; Agonist Mode, −E2) was 62%. The “Efficacy (Emax)” value ([2]; Agonist Mode, −E2) was 1.63 ± 0.17, the “Percent inhibition compared to vehicle” value ([2]; Antagonist Mode, +E2) was 74% and the “Efficacy (Emax)” value ([2]; Antagonist Mode, +E2) was 1.70 ± 0.03. For the same molecule, the “Percent inhibition compared to vehicle” value ([3]; Agonist Mode, −E2) was 63%, the “Efficacy (Emax)” value ([3]; Agonist Mode, −E2) was 2.43 ± 0.02 and the “Percent inhibition compared to vehicle” value ([3]; Antagonist Mode, +E2) was 62%. For the same molecule, the “Efficacy (Emax)” value ([3]; Antagonist Mode, +E2) was 2.39 ± 0.24, the EC50 ([3]; Antagonist Mode, +E2) was 14 ± 15.4 nM and the EC50 [3, 7] was 3.76 ± 3.11 nM. The “Percent inhibition compared to vehicle” value [4, 8] was 49%, the “Efficacy (Emax)” value [4, 9] was 1.62 ± 0.13 and the “Percent inhibition compared to vehicle” value [4, 10] was 69%. The “Efficacy (Emax)” value [4, 11] was 1.87 ± 0.27, the EC50 ([4]; Agonist Mode, −E2) was 0.231 ± 0.104 nM and the EC50 ([4]; Antagonist Mode, +E2) was 2.09 ± 0.425 nM. The EC50 ([5]; Agonist Mode, −E2) was 0.208 ± 0.141 nM, the EC50 ([5]; Antagonist Mode, +E2) was 1.02 ± 0.163 nM and the “Percent inhibition compared to vehicle” value ([5]; Agonist Mode, −E2) was 58%. For the same molecule, the “Efficacy (Emax)” value ([5]; Agonist Mode, −E2) was 1.78 ± 0.28, the “Percent inhibition compared to vehicle” value ([5]; Antagonist Mode, +E2) was 77% and the “Efficacy (Emax)” value ([5]; Antagonist Mode, +E2) was 1.61 ± 0.34. For the same molecule, the “Percent inhibition compared to vehicle” value ([6]; Agonist Mode, −E2) was 86%, the “Efficacy (Emax)” value [6, 12] was 0.14 ± 0.10 and the “Percent inhibition compared to vehicle” value ([6]; Antagonist Mode, +E2) was 96%. The “Efficacy (Emax)” value [6, 13] was 0.08 ± 0.07.
